# Experimental data as given in BindingDB's records for doi:10.1074/jbc.M113.490441 (University of Calgary, 2013).
# Molecular target: T1, Histidine-binding periplasmic protein [1-238] (Escherichia coli (strain 55989 / EAEC), UniProt P0AEU0)
# T1 construct: 1-238
# T1 sequence (P0AEU0 whole entry): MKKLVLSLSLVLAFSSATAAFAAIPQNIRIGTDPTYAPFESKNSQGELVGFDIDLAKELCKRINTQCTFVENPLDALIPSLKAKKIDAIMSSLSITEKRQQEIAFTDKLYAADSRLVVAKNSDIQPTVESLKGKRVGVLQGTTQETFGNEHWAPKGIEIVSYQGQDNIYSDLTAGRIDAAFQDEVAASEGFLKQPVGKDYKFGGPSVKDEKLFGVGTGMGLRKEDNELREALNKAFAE
# Experiment: Isothermal Titration Calorimetry (ITC)
# Details: pH 7; 30 °C
# Description: All ITC experiments were performed using a Microcal VP-ITC microcalorimeter (GE Healthcare). All samples were prepared in a buffer containing 20 mM HEPES (pH 7.0) and 100 mM NaCl. The syringe was filled with 0.5 mM histidine that was injected into the ITC cell containing 20 μM protein (D1, D2, or HisJ) solution at 30 °C.
smiles,measurement,value
N[C@@H](Cc1c[nH]cn1)C(=O)O [L-2-Amino-3-(4-imidazolyl)propionic acid],Kd,114 nM
